These results are taken from ChEMBL document CHEMBL4507288 (2021).

Structures are written as SMILES.

Assay [1] concerns the target Alpha-2A adrenergic receptor (Homo sapiens, UniProt P08913). The assay can be described thus: GPCRScan assay: inhibition of Alpha2A. Further details: radioligand conc. used [nm] 1.0 – 3.0, parental cells stable MDCK.
Assay [2] deals with Phosphatidylinositol 4-phosphate 5-kinase type-1 alpha (Homo sapiens) (UniProt Q99755). The settings on record: Compound concentration 1000.0 nM.
Assay [3] has as its target Membrane-associated tyrosine- and threonine-specific cdc2-inhibitory kinase (Homo sapiens) (UniProt Q99640). The settings on record: Compound concentration 1000.0 nM.
Assay [4] has as its target Mitogen-activated protein kinase 8 (Homo sapiens) (UniProt P45983). Particulars: Compound concentration 1000.0 nM.
Assay [5] addresses Serine/threonine-protein kinase pim-2 (Homo sapiens) (UniProt Q9P1W9). The settings on record: Compound concentration 1000.0 nM.
For assay [6], the target named is NUAK family SNF1-like kinase 1 (Homo sapiens) (UniProt O60285). Particulars: Compound concentration 1000.0 nM.
In assay [7] the target is Ribosomal protein S6 kinase alpha-2 (Homo sapiens) (UniProt Q15349). The settings on record: Compound concentration 1000.0 nM.
In assay [8] the test system is Proto-oncogene tyrosine-protein kinase receptor Ret (Homo sapiens), P07949 [M918T]. The settings on record: Compound concentration 1000.0 nM.
Assay [9] addresses Ephrin type-A receptor 4 (Homo sapiens) (UniProt P54764). Particulars: Compound concentration 1000.0 nM.
Assay [10] addresses Ribosomal protein S6 kinase alpha-3 (Homo sapiens) (UniProt P51812). The settings on record: Compound concentration 1000.0 nM.
Assay [11] concerns the target Serine/threonine-protein kinase TAO2 (Homo sapiens) (UniProt Q9UL54). Particulars: Compound concentration 1000.0 nM.
The target of assay [12] is Serine/threonine-protein kinase D2 (Homo sapiens) (UniProt Q9BZL6). The settings on record: Compound concentration 1000.0 nM.
Assay [13] addresses Microtubule-associated serine/threonine-protein kinase 1 (Homo sapiens) (UniProt Q9Y2H9). Particulars: Compound concentration 1000.0 nM.
Assay [14] has as its target Cyclin-dependent kinase 2 (Homo sapiens) (UniProt P24941). Particulars: Compound concentration 1000.0 nM.
The target of assay [15] is Rho-associated protein kinase 2 (Homo sapiens) (UniProt O75116). The settings on record: Compound concentration 1000.0 nM.
Assay [16] has as its target Serine/threonine-protein kinase DCLK3 (Homo sapiens) (UniProt Q9C098). The settings on record: Compound concentration 1000.0 nM.
In assay [17] the target is Serine/threonine-protein kinase 35 (Homo sapiens) (UniProt Q8TDR2). Particulars: Compound concentration 1000.0 nM.
For assay [18], the target named is Fibroblast growth factor receptor 4 (Homo sapiens) (UniProt P22455). The settings on record: Compound concentration 1000.0 nM.
In assay [19] the target is Megakaryocyte-associated tyrosine-protein kinase (Homo sapiens) (UniProt P42679). The settings on record: Compound concentration 1000.0 nM.
Assay [20] concerns the target Testis-specific serine/threonine-protein kinase 1 (Homo sapiens) (UniProt Q9BXA7). The settings on record: Compound concentration 1000.0 nM.
Assay [21] has as its target Mitogen-activated protein kinase kinase kinase 1 (Homo sapiens) (UniProt Q13233). Particulars: Compound concentration 1000.0 nM.
The target of assay [22] is Dual specificity mitogen-activated protein kinase kinase 3 (Homo sapiens) (UniProt P46734). Particulars: Compound concentration 1000.0 nM.
Assay [23] has as its target Serine/threonine-protein kinase NIM1 (Homo sapiens) (UniProt Q8IY84). The settings on record: Compound concentration 1000.0 nM.
Assay [24] concerns the target Ribosomal protein S6 kinase alpha-4 (Homo sapiens) (UniProt O75676). The settings on record: Compound concentration 1000.0 nM.
The target of assay [25] is Serine/threonine-protein kinase LATS2 (Homo sapiens) (UniProt Q9NRM7). The settings on record: Compound concentration 1000.0 nM.
In assay [26] the test system is Mast/stem cell growth factor receptor Kit (Homo sapiens), P10721 [V559D]. Particulars: Compound concentration 1000.0 nM.
Assay [27] has as its target Mitogen-activated protein kinase kinase kinase 7 (Homo sapiens) (UniProt O43318). Particulars: Compound concentration 1000.0 nM.
Assay [28] has as its target Insulin receptor-related protein (Homo sapiens) (UniProt P14616). Particulars: Compound concentration 1000.0 nM.
The target of assay [29] is Ankyrin repeat and protein kinase domain-containing protein 1 (Homo sapiens) (UniProt Q8NFD2). Particulars: Compound concentration 1000.0 nM.
Ankyrin repeat and protein kinase domain-containing protein 1 (Homo sapiens), sequence (Q8NFD2 whole entry, the tested form may be a part): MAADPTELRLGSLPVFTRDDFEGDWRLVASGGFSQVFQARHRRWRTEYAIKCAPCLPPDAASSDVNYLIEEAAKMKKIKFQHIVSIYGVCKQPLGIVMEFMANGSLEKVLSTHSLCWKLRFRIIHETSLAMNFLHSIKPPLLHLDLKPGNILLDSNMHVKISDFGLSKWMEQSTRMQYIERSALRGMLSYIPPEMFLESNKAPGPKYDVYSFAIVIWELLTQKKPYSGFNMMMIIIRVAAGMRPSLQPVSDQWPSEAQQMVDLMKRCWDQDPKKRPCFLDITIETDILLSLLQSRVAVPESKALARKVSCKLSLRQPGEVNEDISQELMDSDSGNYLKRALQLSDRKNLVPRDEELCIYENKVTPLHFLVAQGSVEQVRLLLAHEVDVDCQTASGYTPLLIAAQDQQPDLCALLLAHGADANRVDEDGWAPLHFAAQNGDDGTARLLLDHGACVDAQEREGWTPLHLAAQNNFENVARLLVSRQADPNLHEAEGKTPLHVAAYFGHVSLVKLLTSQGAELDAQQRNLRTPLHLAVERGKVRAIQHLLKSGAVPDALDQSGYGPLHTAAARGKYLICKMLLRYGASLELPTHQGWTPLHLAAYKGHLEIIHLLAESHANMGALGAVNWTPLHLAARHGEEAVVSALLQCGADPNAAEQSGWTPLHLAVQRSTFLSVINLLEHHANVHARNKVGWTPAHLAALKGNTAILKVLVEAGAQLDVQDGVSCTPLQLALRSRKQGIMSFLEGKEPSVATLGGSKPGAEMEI
Assay [30] has as its target G protein-coupled receptor kinase 3 (Homo sapiens) (UniProt P35626). The settings on record: Compound concentration 1000.0 nM.
The subject of assay [31] is Epidermal growth factor receptor (Homo sapiens), P00533 [G719C]. The settings on record: Compound concentration 1000.0 nM.
In assay [32] the target is Myosin light chain kinase 2, skeletal/cardiac muscle (Homo sapiens) (UniProt Q9H1R3). Particulars: Compound concentration 1000.0 nM.
The target of assay [33] is Serine/threonine-protein kinase PAK 2 (Homo sapiens) (UniProt Q13177). The settings on record: Compound concentration 1000.0 nM.
For assay [34], the target named is cAMP-dependent protein kinase catalytic subunit beta (Homo sapiens) (UniProt P22694). The settings on record: Compound concentration 1000.0 nM.
In assay [35] the target is Serine/threonine-protein kinase WNK3 (Homo sapiens) (UniProt Q9BYP7). Particulars: Compound concentration 1000.0 nM.
Assay [36] concerns the target Tyrosine-protein kinase Mer (Homo sapiens) (UniProt Q12866). Particulars: Compound concentration 1000.0 nM.
The target in assay [37] is Tyrosine-protein kinase BTK (Homo sapiens) (UniProt Q06187). Particulars: Compound concentration 1000.0 nM.
Assay [38] has as its system Epidermal growth factor receptor (Homo sapiens), P00533 [L861Q]. Particulars: Compound concentration 1000.0 nM.
For assay [39], the target named is Rhodopsin kinase GRK1 (Homo sapiens) (UniProt Q15835). Particulars: Compound concentration 1000.0 nM.
In assay [40] the target is Serine/threonine-protein kinase Sgk1 (Homo sapiens) (UniProt O00141). Particulars: Compound concentration 1000.0 nM.
Serine/threonine-protein kinase Sgk1 (Homo sapiens), sequence (O00141 whole entry): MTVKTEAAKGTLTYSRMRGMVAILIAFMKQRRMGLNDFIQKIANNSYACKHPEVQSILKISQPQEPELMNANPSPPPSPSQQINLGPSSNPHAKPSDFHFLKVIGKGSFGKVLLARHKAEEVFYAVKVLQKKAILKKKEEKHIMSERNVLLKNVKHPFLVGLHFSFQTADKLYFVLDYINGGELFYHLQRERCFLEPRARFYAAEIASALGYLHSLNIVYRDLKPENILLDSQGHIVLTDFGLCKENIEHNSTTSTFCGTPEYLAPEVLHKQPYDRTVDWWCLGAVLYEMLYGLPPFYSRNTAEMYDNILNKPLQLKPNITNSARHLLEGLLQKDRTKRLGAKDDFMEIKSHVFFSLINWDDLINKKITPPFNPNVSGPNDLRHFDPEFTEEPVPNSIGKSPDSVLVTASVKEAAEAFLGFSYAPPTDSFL
Assay [41] concerns the target Maternal embryonic leucine zipper kinase (Homo sapiens) (UniProt Q14680). The settings on record: Compound concentration 1000.0 nM.
The target in assay [42] is Calcium/calmodulin-dependent protein kinase type II subunit alpha (Homo sapiens) (UniProt Q9UQM7). Particulars: Compound concentration 1000.0 nM.
The target in assay [43] is Protein kinase C theta type (Homo sapiens) (UniProt Q04759). The settings on record: Compound concentration 1000.0 nM.
Protein kinase C theta type (Homo sapiens), sequence (Q04759 whole entry, looked up): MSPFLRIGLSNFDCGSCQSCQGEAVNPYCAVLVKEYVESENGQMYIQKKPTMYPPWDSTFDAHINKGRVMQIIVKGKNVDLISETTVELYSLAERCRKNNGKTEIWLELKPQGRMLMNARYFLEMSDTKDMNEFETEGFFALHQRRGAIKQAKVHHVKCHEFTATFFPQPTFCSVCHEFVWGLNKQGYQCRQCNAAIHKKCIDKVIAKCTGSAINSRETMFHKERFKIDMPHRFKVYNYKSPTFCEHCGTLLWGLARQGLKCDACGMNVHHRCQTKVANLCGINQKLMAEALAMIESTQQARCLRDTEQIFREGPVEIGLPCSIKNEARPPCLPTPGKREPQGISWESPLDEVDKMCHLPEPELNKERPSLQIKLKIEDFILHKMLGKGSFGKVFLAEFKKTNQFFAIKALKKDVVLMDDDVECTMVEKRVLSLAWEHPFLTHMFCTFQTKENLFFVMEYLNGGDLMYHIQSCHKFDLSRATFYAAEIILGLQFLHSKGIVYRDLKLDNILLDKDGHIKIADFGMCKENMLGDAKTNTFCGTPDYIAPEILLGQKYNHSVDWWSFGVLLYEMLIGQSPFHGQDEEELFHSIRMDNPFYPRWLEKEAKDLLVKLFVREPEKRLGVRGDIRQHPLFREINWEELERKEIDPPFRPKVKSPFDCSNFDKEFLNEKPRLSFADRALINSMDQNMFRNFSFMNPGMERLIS
Assay [44] addresses 5-hydroxytryptamine receptor 1E (Homo sapiens) (UniProt P28566). Particulars: Compound concentration 10.0 uM.
The target in assay [45] is Rho-associated protein kinase 1 (Homo sapiens) (UniProt Q13464). The settings on record: Compound concentration 1000.0 nM.

A word on the Ki: it is the equilibrium dissociation constant of an inhibitor or competing ligand from its target. Usually inhibition stands for the relative decrease from the control value, in per cent.

Microtubule-associated serine/threonine-protein kinase 1 (Homo sapiens), sequence (Q9Y2H9 whole entry, looked up): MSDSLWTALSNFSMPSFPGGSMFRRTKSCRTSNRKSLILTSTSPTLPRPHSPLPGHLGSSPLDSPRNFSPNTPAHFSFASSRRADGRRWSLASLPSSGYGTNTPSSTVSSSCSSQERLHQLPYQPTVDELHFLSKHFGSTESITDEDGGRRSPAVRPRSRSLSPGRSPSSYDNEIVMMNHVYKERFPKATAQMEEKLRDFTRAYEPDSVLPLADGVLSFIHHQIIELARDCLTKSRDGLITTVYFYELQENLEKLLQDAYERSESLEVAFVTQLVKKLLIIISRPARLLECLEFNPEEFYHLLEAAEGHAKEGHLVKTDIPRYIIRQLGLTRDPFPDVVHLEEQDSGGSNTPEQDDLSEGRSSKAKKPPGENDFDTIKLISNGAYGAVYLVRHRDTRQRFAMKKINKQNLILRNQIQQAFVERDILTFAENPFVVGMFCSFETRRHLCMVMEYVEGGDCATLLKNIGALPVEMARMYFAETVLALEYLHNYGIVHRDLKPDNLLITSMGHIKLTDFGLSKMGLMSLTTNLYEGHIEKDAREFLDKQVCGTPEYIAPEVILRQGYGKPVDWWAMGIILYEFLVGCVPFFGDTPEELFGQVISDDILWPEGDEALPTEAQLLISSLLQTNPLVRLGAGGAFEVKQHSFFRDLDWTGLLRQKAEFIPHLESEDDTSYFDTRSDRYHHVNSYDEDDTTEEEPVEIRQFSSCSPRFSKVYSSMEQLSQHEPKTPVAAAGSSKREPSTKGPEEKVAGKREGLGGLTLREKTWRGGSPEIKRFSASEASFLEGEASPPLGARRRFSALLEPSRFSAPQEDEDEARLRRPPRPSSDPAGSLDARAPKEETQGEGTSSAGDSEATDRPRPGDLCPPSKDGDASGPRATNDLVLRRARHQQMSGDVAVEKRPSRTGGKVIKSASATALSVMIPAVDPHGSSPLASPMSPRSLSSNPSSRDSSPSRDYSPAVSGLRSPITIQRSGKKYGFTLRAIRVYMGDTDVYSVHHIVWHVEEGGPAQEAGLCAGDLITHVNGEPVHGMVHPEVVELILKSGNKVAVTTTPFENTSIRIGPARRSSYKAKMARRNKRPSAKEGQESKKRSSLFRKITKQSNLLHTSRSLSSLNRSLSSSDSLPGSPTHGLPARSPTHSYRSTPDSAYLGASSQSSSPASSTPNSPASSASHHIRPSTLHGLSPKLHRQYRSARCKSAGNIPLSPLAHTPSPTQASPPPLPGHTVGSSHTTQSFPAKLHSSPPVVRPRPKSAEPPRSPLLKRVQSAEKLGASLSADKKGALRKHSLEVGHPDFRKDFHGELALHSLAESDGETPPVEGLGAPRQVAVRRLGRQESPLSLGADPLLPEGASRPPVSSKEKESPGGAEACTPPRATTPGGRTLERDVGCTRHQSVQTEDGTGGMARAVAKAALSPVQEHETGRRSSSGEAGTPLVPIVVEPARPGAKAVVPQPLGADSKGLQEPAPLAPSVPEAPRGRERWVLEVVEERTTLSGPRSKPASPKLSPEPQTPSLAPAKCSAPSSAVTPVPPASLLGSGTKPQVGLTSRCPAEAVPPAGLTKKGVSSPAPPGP
Serine/threonine-protein kinase TAO2 (Homo sapiens), sequence (Q9UL54 whole entry): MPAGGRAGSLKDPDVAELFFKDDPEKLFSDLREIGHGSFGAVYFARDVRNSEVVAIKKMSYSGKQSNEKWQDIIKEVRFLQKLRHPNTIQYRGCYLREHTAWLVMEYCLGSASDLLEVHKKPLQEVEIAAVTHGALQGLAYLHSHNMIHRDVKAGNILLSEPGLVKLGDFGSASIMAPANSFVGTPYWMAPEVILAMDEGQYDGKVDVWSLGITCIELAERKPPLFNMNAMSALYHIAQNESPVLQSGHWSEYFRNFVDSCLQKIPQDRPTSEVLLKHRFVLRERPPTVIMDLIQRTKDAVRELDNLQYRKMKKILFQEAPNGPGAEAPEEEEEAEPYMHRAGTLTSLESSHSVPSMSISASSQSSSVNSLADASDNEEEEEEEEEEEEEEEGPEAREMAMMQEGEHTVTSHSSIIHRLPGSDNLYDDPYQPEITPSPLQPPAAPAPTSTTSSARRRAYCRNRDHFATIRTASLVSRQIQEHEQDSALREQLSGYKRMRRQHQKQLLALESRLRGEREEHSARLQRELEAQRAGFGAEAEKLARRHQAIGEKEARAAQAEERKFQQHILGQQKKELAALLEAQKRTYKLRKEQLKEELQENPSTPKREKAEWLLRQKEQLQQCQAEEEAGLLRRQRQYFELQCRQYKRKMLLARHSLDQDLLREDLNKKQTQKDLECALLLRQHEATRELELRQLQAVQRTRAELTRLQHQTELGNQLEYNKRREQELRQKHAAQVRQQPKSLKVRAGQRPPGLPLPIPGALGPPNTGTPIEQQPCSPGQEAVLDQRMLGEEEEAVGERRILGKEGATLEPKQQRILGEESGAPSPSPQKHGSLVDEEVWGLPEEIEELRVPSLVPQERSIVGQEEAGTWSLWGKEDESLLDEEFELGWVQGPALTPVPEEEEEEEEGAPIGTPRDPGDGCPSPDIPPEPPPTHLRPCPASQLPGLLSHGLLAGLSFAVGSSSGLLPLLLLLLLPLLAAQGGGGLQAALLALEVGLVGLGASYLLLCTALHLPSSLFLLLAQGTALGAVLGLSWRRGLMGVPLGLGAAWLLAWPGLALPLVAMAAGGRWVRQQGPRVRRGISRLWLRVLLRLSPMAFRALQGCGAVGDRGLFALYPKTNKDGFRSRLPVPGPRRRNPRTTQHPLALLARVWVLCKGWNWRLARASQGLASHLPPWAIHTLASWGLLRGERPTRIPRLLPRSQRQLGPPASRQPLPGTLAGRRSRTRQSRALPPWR
Serine/threonine-protein kinase pim-2 (Homo sapiens), sequence (Q9P1W9 whole entry, looked up): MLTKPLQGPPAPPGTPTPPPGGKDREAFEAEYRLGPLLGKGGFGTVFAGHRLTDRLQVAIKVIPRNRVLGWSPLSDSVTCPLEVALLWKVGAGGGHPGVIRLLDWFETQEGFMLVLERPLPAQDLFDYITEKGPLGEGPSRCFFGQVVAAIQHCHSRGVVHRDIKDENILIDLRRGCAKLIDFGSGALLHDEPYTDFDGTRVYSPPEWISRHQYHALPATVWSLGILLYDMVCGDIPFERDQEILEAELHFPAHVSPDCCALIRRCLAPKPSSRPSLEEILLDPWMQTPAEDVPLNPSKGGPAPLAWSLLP

Take `CC(C)(C)OC(=O)N1CCCC1CNC1CCC(c2cc(F)ccc2F)(S(=O)(=O)c2ccc(Cl)cc2)CC1` (stereo not given) [GSI-NC]: the inhibitory constant (Ki) in assay [1] worked out at 237 nM.

Turning to `O=S(=O)(NC1CCC(c2cc(F)ccc2F)(S(=O)(=O)c2ccc(Cl)cc2)CC1)C(F)(F)F` (stereo not given) [MRK-560], the residual activity is 100% in assay [2]; 100% in [3]; 78% in assay [4]; 100% in [5]; 83% in assay [6]; 95% in assay [7]. For the same molecule, the residual activity in assay [8] was 92%; in assay [9], 95%; in [10] it was 96%; in assay [11], 100%; in assay [12] it was 79%; in assay [13] it was 100%. Also, the residual activity in assay [14], in [15], in assay [16], in assay [17], in assay [18] and in assay [19] was 100% each time. The residual activity in assay [20] was 100%; in assay [21], 100%; in assay [22], 83%; in assay [23], 80%; in [24], 100%; in assay [25] it was 0%. Moreover, the residual activity in assay [26] is 95%; in assay [27], 100%; in assay [28], 100%; in assay [29], 92%; in assay [30], 92%; in [31], 100%. Moreover, the residual activity in [32] is 91%; in assay [33], 100%; in [34], 98%; in assay [35], 100%; in [36] it was 99%; in [37] it was 100%. The residual activity in [38] is 100%; in assay [39], 84%; in assay [40], 83%; in assay [41], 69%; in assay [42], 100%; in assay [43], 100%. Moreover, in [45], the residual activity was 84%. In assay [44], the inhibition is -8.31%.
